Several values for one entry are separate records, joined by “and”; a condition that tells them apart may be missing. Identical values can stand only once. Like-named read-outs stand apart in the source and are kept apart here.
Columns and labels:
[1] = tested on: DNA of tumors and adjacent normal tissue; conditions: small series of patients with head and neck cancers or liver metastases from colorectal cancer; cited from earlier work
[2] = Pharmacokinetic profile of IUdR (100 mg/kg) with and without Tipiracil in rats following single oral administration; format: in vivo, male Sprague-Dawley rats
Procedure: The purpose of this study was to determine the pharmacokinetics parameters of IUdR in male Sprague-Dawley rats following single oral (PO) administration the IUdR (i.e., Compound A) and Tipiracil (i.e., Compound B).
A control formulation was prepared where Compound A was dissolved in 5% DMSO+95% PBS to yield a final concentration of 10 mg/mL for oral administration. The prepared formulation was white suspension (pH˜7).
A second formulation was prepared where Compound A and Compound B were dissolved in 5% DMSO+95% PBS to yield a final concentration of 10 mg/mL (Compound A) and 0.79 mg/mL (Compound B) for oral administration. The prepared formulation was white suspension (pH˜7).
Animal Acquisition and Assignment to Study. A total of 8 male experimental Sprague-Dawley Rats were transferred from stock colony, and 6 animals were placed on study.
Dose Administration. The test article was administered via a single oral administration.
Sample Collection and Bioanalysis. Blood samples (approximately 200 μL/sample) were collected via jugular vein at Pre-dose and Post-dose (5 min, 15 min, 30 min, 1 h, 2 h, 4 h, 6 h, 8 h and 24 h). Blood samples were placed into tubes containing K2EDTA and centrifuged conditions at 8000 rpm for 6 minutes at 2-8° C. to separate plasma from the samples. Following centrifugation, the resulting plasma were transferred to clean tubes and stored frozen at −80° C. pending bioanalysis.
Pharmacokinetic Analysis. The PK analysis and interpretation of the results were conducted by Medicilon Preclinical Research (Shanghai) LLC. A non-compartmental module of WinNonlin® Professional was used to calculate parameters. Any BLQs (LLOQ=10.0 ng/mL for Compound A) were omitted when calculate the PK parameters.
Clinical Observations. No abnormal observations were noted.

O=c1[nH]c(=O)n([C@H]2C[C@H](O)[C@@H](CO)O2)cc1I [Compound A, 5-iodo-2′-deoxyuridine]
% IUdR-DNA incorporation in adjacent normal tissue [1]: less than 1%
% IUdR-DNA incorporation in tumors [1]: ≤ 5%
Plasma Concentration of Compound A ([2]; PO-100 mg/kg Compound A alone or + 7.9 mg/kg Compound B, 0.083 hr, individual animals, LLOQ 10 ng/mL): 192.41 ng/mL and 168.24 ng/mL
Plasma Concentration of Compound A ([2]; PO-100 mg/kg Compound A alone or + 7.9 mg/kg Compound B, 0.25 hr, individual animals, LLOQ 10 ng/mL): 628.30 ng/mL and 538.67 ng/mL
Plasma Concentration of Compound A ([2]; PO-100 mg/kg Compound A alone or + 7.9 mg/kg Compound B, 0.5 hr, individual animals, LLOQ 10 ng/mL): 755.39 ng/mL and 684.80 ng/mL
Plasma Concentration of Compound A ([2]; PO-100 mg/kg Compound A alone or + 7.9 mg/kg Compound B, 1 hr, individual animals, LLOQ 10 ng/mL): 596.55 ng/mL and 772.49 ng/mL
Plasma Concentration of Compound A ([2]; PO-100 mg/kg Compound A alone or + 7.9 mg/kg Compound B, 2 hr, individual animals, LLOQ 10 ng/mL): 645.17 ng/mL and 943.79 ng/mL
Plasma Concentration of Compound A ([2]; PO-100 mg/kg Compound A alone or + 7.9 mg/kg Compound B, 4 hr, individual animals, LLOQ 10 ng/mL): 316.82 ng/mL and 441.37 ng/mL
Plasma Concentration of Compound A ([2]; PO-100 mg/kg Compound A alone or + 7.9 mg/kg Compound B, 6 hr, individual animals, LLOQ 10 ng/mL): BLQ and 56.61 ng/mL
Plasma Concentration of Compound A ([2]; PO-100 mg/kg Compound A alone or + 7.9 mg/kg Compound B, 8 hr, individual animals, LLOQ 10 ng/mL): BLQ
Plasma Concentration of Compound A ([2]; PO-100 mg/kg Compound A alone or + 7.9 mg/kg Compound B, 24 hr, individual animals, LLOQ 10 ng/mL): BLQ
AUC(0-inf) ([2]; male, Sprague-Dawley, rat, plasma, 100 mg/kg, single oral dose, Example 1, sub-heading prints PO-20 (Compound A) alone or + 7.9 (Compound B) mg/kg, individual animals): 2630 ng·h/mL
half-life ([2]; male, Sprague-Dawley, rat, plasma, 100 mg/kg, single oral dose, Example 1, sub-heading prints PO-20 (Compound A) alone or + 7.9 (Compound B) mg/kg, individual animals, read-out: t1/2 of Compound A (converted)): 53.4 min
concentration at 0.083 hr ([2]; male, Sprague-Dawley, rat, plasma, oral, 100 mg/kg, PO-100 mg/kg Compound A alone or + 7.9 mg/kg Compound B, 0.083 hr, group mean, read-out: Plasma Concentration of Compound A, Mean): 184 ng/mL
concentration at 0.083 hr ([2]; male, Sprague-Dawley, rat, plasma, oral, 100 mg/kg, PO-100 mg/kg Compound A alone or + 7.9 mg/kg Compound B, 0.083 hr, individual animals, LLOQ 10 ng/mL, read-out: Plasma Concentration of Compound A): 191 ng/mL
concentration at 0.25 hr ([2]; male, Sprague-Dawley, rat, plasma, oral, 100 mg/kg, PO-100 mg/kg Compound A alone or + 7.9 mg/kg Compound B, 0.25 hr, group mean, read-out: Plasma Concentration of Compound A, Mean): 552 ng/mL
concentration at 0.25 hr ([2]; male, Sprague-Dawley, rat, plasma, oral, 100 mg/kg, PO-100 mg/kg Compound A alone or + 7.9 mg/kg Compound B, 0.25 hr, individual animals, LLOQ 10 ng/mL, read-out: Plasma Concentration of Compound A): 489 ng/mL
concentration at 0.5 hr ([2]; male, Sprague-Dawley, rat, plasma, oral, 100 mg/kg, PO-100 mg/kg Compound A alone or + 7.9 mg/kg Compound B, 0.5 hr, group mean, read-out: Plasma Concentration of Compound A, Mean): 689 ng/mL
concentration at 0.5 hr ([2]; male, Sprague-Dawley, rat, plasma, oral, 100 mg/kg, PO-100 mg/kg Compound A alone or + 7.9 mg/kg Compound B, 0.5 hr, individual animals, LLOQ 10 ng/mL, read-out: Plasma Concentration of Compound A): 627 ng/mL
concentration at 1 hr ([2]; male, Sprague-Dawley, rat, plasma, oral, 100 mg/kg, PO-100 mg/kg Compound A alone or + 7.9 mg/kg Compound B, 1 hr, group mean, read-out: Plasma Concentration of Compound A, Mean): 642 ng/mL
concentration at 1 hr ([2]; male, Sprague-Dawley, rat, plasma, oral, 100 mg/kg, PO-100 mg/kg Compound A alone or + 7.9 mg/kg Compound B, 1 hr, individual animals, LLOQ 10 ng/mL, read-out: Plasma Concentration of Compound A): 556 ng/mL
concentration at 2 hr ([2]; male, Sprague-Dawley, rat, plasma, oral, 100 mg/kg, PO-100 mg/kg Compound A alone or + 7.9 mg/kg Compound B, 2 hr, group mean, read-out: Plasma Concentration of Compound A, Mean): 788 ng/mL
concentration at 2 hr ([2]; male, Sprague-Dawley, rat, plasma, oral, 100 mg/kg, PO-100 mg/kg Compound A alone or + 7.9 mg/kg Compound B, 2 hr, individual animals, LLOQ 10 ng/mL, read-out: Plasma Concentration of Compound A): 774 ng/mL
concentration at 4 hr ([2]; male, Sprague-Dawley, rat, plasma, oral, 100 mg/kg, PO-100 mg/kg Compound A alone or + 7.9 mg/kg Compound B, 4 hr, group mean, read-out: Plasma Concentration of Compound A, Mean): 345 ng/mL
concentration at 4 hr ([2]; male, Sprague-Dawley, rat, plasma, oral, 100 mg/kg, PO-100 mg/kg Compound A alone or + 7.9 mg/kg Compound B, 4 hr, individual animals, LLOQ 10 ng/mL, read-out: Plasma Concentration of Compound A): 276 ng/mL
concentration at 6 hr ([2]; male, Sprague-Dawley, rat, plasma, oral, 100 mg/kg, PO-100 mg/kg Compound A alone or + 7.9 mg/kg Compound B, 6 hr, group mean (BLQ omitted), read-out: Plasma Concentration of Compound A, Mean): 55.3 ng/mL
concentration at 6 hr ([2]; male, Sprague-Dawley, rat, plasma, oral, 100 mg/kg, PO-100 mg/kg Compound A alone or + 7.9 mg/kg Compound B, 6 hr, individual animals, LLOQ 10 ng/mL, read-out: Plasma Concentration of Compound A): 54 ng/mL
concentration at 8 hr ([2]; male, Sprague-Dawley, rat, plasma, oral, 100 mg/kg, PO-100 mg/kg Compound A alone or + 7.9 mg/kg Compound B, 8 hr, individual animals, LLOQ 10 ng/mL): 14.1 ng/mL
AUC(0-t) ([2]; male, Sprague-Dawley, rat, plasma, po, 100 mg/kg, oral administration, Example 1 (100 mg/kg IUdR, ± 7.9 mg/kg Tipiracil), comparison table, mean, read-out: AUC(0-t) of Compound A): 2720 ng·h/mL
Cmax ([2]; male, Sprague-Dawley, rat, plasma, po, 100 mg/kg, oral administration, Example 1 (100 mg/kg IUdR, ± 7.9 mg/kg Tipiracil), comparison table, mean, read-out: Cmax of Compound A): 824 ng/mL
Tmax ([2]; male, Sprague-Dawley, rat, plasma, po, 100 mg/kg, single oral dose, Example 1, sub-heading prints PO-20 (Compound A) alone or + 7.9 (Compound B) mg/kg, group mean): 1.5 h
Cmax ([2]; male, Sprague-Dawley, rat, plasma, po, 100 mg/kg, single oral dose, Example 1, sub-heading prints PO-20 (Compound A) alone or + 7.9 (Compound B) mg/kg, group mean, read-out: Cmax of Compound A, Mean): 824 ng/mL
